Target: T1, Activin receptor type-1 (Homo sapiens, UniProt Q04771)
T1 sequence (Q04771 whole entry): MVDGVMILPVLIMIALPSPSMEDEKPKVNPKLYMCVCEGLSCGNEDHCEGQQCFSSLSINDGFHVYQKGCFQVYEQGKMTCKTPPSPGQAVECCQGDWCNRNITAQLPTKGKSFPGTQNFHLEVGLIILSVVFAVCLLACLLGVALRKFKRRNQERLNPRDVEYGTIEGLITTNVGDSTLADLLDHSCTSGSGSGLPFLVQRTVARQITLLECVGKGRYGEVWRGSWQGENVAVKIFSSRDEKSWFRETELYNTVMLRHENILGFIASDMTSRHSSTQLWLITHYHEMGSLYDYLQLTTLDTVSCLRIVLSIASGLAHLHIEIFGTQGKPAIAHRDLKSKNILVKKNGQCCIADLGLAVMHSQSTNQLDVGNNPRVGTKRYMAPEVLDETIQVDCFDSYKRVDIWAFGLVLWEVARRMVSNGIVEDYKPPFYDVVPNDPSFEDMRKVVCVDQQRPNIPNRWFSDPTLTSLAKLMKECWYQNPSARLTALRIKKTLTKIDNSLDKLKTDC
Experiment: ALK1-6 enzymatic assays: Specifically, compounds were assayed using LANCE® Ultra ULight¿ technology (Perkin Elmer) against human ALK1-6 enzymes (ALK1: Life Technologies, ALK2-6: Carna Biosciences). Briefly, ALK enzyme (10 nM) was prepared in kinase buffer (50 mM HEPES, pH 7.5, 10 mM MgCl2, […], 0.005% Tween-20 and 2 mM DTT) and dispensed at 2.5 μL/well into a 1536 well, white, solid …

SMILES: Cc1cc(-c2cnn3cc(-c4ccc(C5CCNCC5)cc4)cnc23)c2ccccc2n1
- IC50: 23 nM

From ChEMBL document CHEMBL5725340, “BMP inhibitors and methods of use thereof” (2017)
